From patent US7109244B2, “Compositions and methods comprising long-chain, straight-chain 2-amino-3-hydroxyalkanes” (priority 1997, dated 2006)
pIC50: −log10 of the molar value.

Assays:
FADU = experiment: expanded in vitro screen, FADU; format: cell-based; settings: Homo sapiens, Pharnynx, solid
Description: (§1) An expanded in vitro screen was performed of spisulosine 285 against a series of different cell lines.

MEL-28 = experiment: in vitro tumor cell line activity, MEL-28; format: cell-based
HT-29 [1] = experiment: expanded in vitro screen, HT-29; format: cell-based; settings: Homo sapiens; HT-29, Colon, solid
Description: as §1

Hs 746T = experiment: expanded in vitro screen, Hs 746T; format: cell-based; settings: Homo sapiens, Hs746T, Stomach, solid
Description: as §1

P-388 = experiment: in vitro tumor cell line activity, P-388; format: cell-based
HL60 = experiment: expanded in vitro screen, HL60; format: cell-based; settings: Homo sapiens, HL-60; HL60, Leukemia
Description: as §1

U-937 = experiment: expanded in vitro screen, U-937; format: cell-based; settings: Homo sapiens; U-937, Lymphoma
Description: as §1

RAMOS = experiment: expanded in vitro screen, RAMOS; format: cell-based; settings: Homo sapiens, Burkitts
Description: as §1

H9 = experiment: expanded in vitro screen, H9; format: cell-based; settings: Homo sapiens; H9, Lymphoma
Description: as §1

CV-1 = experiment: expanded in vitro screen, CV-1 normal cell line; format: cell-based, monkey; settings: Primates, CV-1, Kidney fibroblasts
Description: as §1

K562 = experiment: expanded in vitro screen, K562; format: cell-based; settings: Homo sapiens; K562, Leukemia
Description: as §1

MX-1 = experiment: expanded in vitro screen, MX-1; format: cell-based; settings: Homo sapiens, MX1; MX-1, Mammary, solid
Description: as §1

A-549 = experiment: in vitro tumor cell line activity, A-549; format: cell-based
Vero cells [2] = experiment: Vero cell morphology (Example A); format: cell-based; settings: 0.5 mM, 4 hours
Description: Vero cells were grown in Dulbecco's modified Eagle medium supplemented with 10% foetal bovine serum. Spisulosine or LPA were added to these cultures to a concentration of […] and 50–10 mM respectively, from 4 to 24 hours. Cells were counted with the […] haemocytometer procedure using a solution of 0.4% Trypan blue in Hanks buffered Saline (Celis and Celis, “General Procedures for Tissue Culture in Cell Biology, a Laboratory Handbook” Academic Press Inc, Vol 1, pp. 5–17.)
Vero cells were incubated with spisulosine 285 (0.5 mM) for 4 hours. […] Panel c represents a higher magnification of the culture to which spisulosine was added.

Vero cells [3] = experiment: microfilament and microtubule staining in Vero cells (Example B); format: cell-based; settings: 0.5 mM, 4 hours
Description: In order to identify the organization of the microfilament and microtubule organization in cells treated with spisulosine 285, cells were stained with phalloidin to detect actin polymers, and an antitubulin antibody to detect tubulin.
Vero cells were incubated in the presence (panel b, d) or absence (a, c) of 0.5 mM spisulosine 285 for 4 hours. Cells grown in coverslips were fixed with methanol at −20° C. (for tubulin antibody) or with 4% paraformaldehyde in phosphate buffered saline PBS (w/v) for phalloidin incubation. In the second case the cells were washed with 0.2% Triton X100 in PBS. The coverslips were washed with PBS and incubated for 1 hour at room temperature with the tubulin antibody (diluted 1/1000 in PBS) or with phalloidin (1 mg/ml). After washing with PBS the coverslips incubated with the tubulin antibody were overlaid with fluorescein or Texas red-labelled goat antimouse antibodies (diluted 1:50 in PBS). The coverslips were mounted with Mowiol and stored in the dark at 4° C. until observation.

Vero cells [4] = experiment: effect of LPA on the action of spisulosine 285 in Vero cells (Example D); format: cell-based; settings: spisulosine alone, 24 hours
Source text: LPA is known to increase the level of stress fibers in cells by activation of the Rho protein. The effect of LPA on cells treated with spisulosine 285, and untreated cells was examined. […]

SK-OV-3 = experiment: expanded in vitro screen, SK-OV-3; format: cell-based; settings: Homo sapiens; SK-OV-3, Ovary, solid
Description: as §1

CCRF-SB = experiment: expanded in vitro screen, CCRF-SB; format: cell-based; settings: Homo sapiens, Leukemia
Description: as §1

HT-29 [5] = experiment: in vitro tumor cell line activity, HT-29; format: cell-based
PANC-1 = experiment: expanded in vitro screen, PANC-1; format: cell-based; settings: Homo sapiens; PANC-1, Pancreas, solid
Description: as §1

Structure (SMILES): CCCCCCCCCCCCCCC[C@@H](O)[C@H](C)N [Spisulosine 285, (2S,3R)-2-Amino-3-octadecanol]
- pIC50 (FADU): 11.30
- active against tumor cell line in vitro (concentration) (MEL-28): 0.05 mg/mL
- pIC50 (HT-29 [1]): 11.59
- pIC50 (Hs 746T): 11.10
- active against tumor cell line in vitro (concentration) (P-388): 0.01 mg/mL
- pIC50 (HL60): 11.07
- pIC50 (U-937): 10.71
- pIC50 (RAMOS): 10.32
- pIC50 (H9): 10.51
- pIC50 (CV-1): 10.56
- pIC50 (K562): 10.80
- pIC50 (MX-1): 10.41
- active against tumor cell line in vitro (concentration) (A-549): 0.05 mg/mL
- cell shape (Vero cells [2]): altered from polygonal (untreated cells, panel a) to a fusiform shape
- actin (phalloidin stain) (Vero cells [3]): dramatic decrease in actin
- microtubule network (tubulin antibody) (Vero cells [3]): remains in a polymerised form
- cell morphology (Vero cells [4]): appearance of rounded cells
- pIC50 (SK-OV-3): 10.85
- pIC50 (CCRF-SB): 8.98
- active against tumor cell line in vitro (concentration) (HT-29 [5]): 0.05 mg/mL
- pIC50 (PANC-1): 11.77
